Reference: ChEMBL document CHEMBL4513161, “CO-ADD screening of MMV (CH) - Pandemic Response Box” (2021)
≈ marks a conversion by molar mass, not a printed value.

Legend:
Pseudomonas aeruginosa [1] = experiment: Antibacterial activity against Pseudomonas aeruginosa PAO397 [PAO1 d(mexAB-oprM) d(mexCD-oprJ) d(mexEF-oprN) d(mexJKL) d(mexXY) d(opmH)] (CO-ADD:GN_211); MIC in CAMBH media using NBS plates, by OD(600); assay type: functional; details: ASSAY_TEST Inhibition of Bacterial Growth, detection method Absorption (OD600), MEDIA CAMHB, plate type 384well, CORNING #3640, time 18 hr
Klebsiella pneumoniae = experiment: microbe, parasite or virus in culture; details: ATCC 700603, 18 h, ASSAY_TEST Inhibition of Bacterial Growth, detection method Absorption (OD600), MEDIA CAMHB, plate type 384well, NBS, CORNING #3640
Description: Antibacterial activity against Klebsiella pneumoniae MDR ATCC 70063 (CO-ADD:GN_003); MIC in CAMBH media using NBS plates, by OD(600)

Pseudomonas aeruginosa [2] = experiment: microbe, parasite or virus in culture; details: ATCC 27853, 18 h, ASSAY_TEST Inhibition of Bacterial Growth, detection method Absorption (OD600), MEDIA CAMHB, plate type 384well, NBS, CORNING #3640
Description: Antibacterial activity against Pseudomonas aeruginosa ATCC 27853 (CO-ADD:GN_042); MIC in CAMBH media using NBS plates, by OD(600)

Acinetobacter baumannii = experiment: microbe, parasite or virus in culture; details: ATCC 19606, 18 h, ASSAY_TEST Inhibition of Bacterial Growth, detection method Absorption (OD600), MEDIA CAMHB, plate type 384well, NBS, CORNING #3640
Description: Antibacterial activity against Acinetobacter baumannii ATCC 19606 (CO-ADD:GN_034); MIC in CAMBH media using NBS plates, by OD600

Escherichia coli = experiment: microbe, parasite or virus in culture; details: ATCC 25922, 18 h, ASSAY_TEST Inhibition of Bacterial Growth, detection method Absorption (OD600), MEDIA CAMHB, plate type 384well, NBS, CORNING #3640
Description: Antibacterial activity against Escherichia coli ATCC 25922 (CO-ADD:GN_001); MIC in CAMBH media using NBS plates, by OD(600)

Staphylococcus aureus = experiment: microbe, parasite or virus in culture; details: ATCC 43300, 18 h, ASSAY_TEST Inhibition of Bacterial Growth, detection method Absorption (OD600), MEDIA CAMHB, plate type 384well, NBS, CORNING #3640
Description: Antibacterial activity against Staphylococcus aureus MRSA ATCC 43300 (CO-ADD:GP_020); MIC in CAMBH media, using NBS plates, by OD(600)

Candida albicans = experiment: microbe, parasite or virus in culture; details: ATCC 90028, ASSAY_TEST Inhibition of Fungal Growth, detection method Absorption (OD530), plate type 384well, NBS, CORNING #3640
Description: Antifungal activity against Candida albicans ATCC 90028 (CO-ADD:FG_001); MIC in YNB media using NBS plates, by OD630

HEK293 = experiment: cells; assay type: functional, Homo sapiens, ATCC CRL1573; details: Homo sapiens, ATCC CRL1573, HEK293; ASSAY_TEST Inhibition of Cell Viability; detection method Resazurin; Fluorescence (ex560/em590); MEDIA DMEM with 10% FBS; plate type 384well; TC; CORNING #3712; time 18 hr; read-out: CC50

Description for Cryptococcus neoformans: Antifungal activity against Cryptococcus neoformans H99 ATCC 208821 (CO-ADD:FG_002); MIC in YNB media using NBS plates, by Resazurin OD(600-570)

SMILES | MIC (Pseudomonas aeruginosa [1]) | MIC (Klebsiella pneumoniae) | MIC (Cryptococcus neoformans) | MIC (Pseudomonas aeruginosa [2]) | MIC (Acinetobacter baumannii) | MIC (Escherichia coli) | MIC (Staphylococcus aureus) | MIC (Candida albicans) | CC50 (HEK293)
O=P(O)(O)C(CCCc1cccc(Oc2ccccc2)c1)S(=O)(=O)O (stereo not given) | > 20 µM | > 20 µM | > 20 µM | > 20 µM | > 20 µM | > 20 µM | > 20 µM | > 20 µM | > 20 µM
COc1ccccc1NC(=O)c1ccccc1Sc1ccc([N+](=O)[O-])cc1 | > 20 µM | > 20 µM | > 20 µM | > 20 µM | > 20 µM | > 20 µM | > 20 µM | > 20 µM | > 20 µM
Cc1[nH]c2ccccc2c1CC(=O)N[C@@H](Cc1ccccc1)C(=O)N(C)c1ccccc1 | > 20 µM | > 20 µM | > 20 µM | > 20 µM | > 20 µM | > 20 µM | > 20 µM | > 20 µM | > 20 µM
CC(C)Nc1ncnc2c1cnn2-c1ccc(Cl)cc1 | > 20 µM | > 20 µM | > 20 µM | > 20 µM | > 20 µM | > 20 µM | > 20 µM | > 20 µM | > 20 µM
CCOc1ccc(C(=O)NCCc2ccccc2)cc1 | > 20 µM | > 20 µM | > 20 µM | > 20 µM | > 20 µM | > 20 µM | > 20 µM | > 20 µM | > 20 µM
N#Cc1cc([N+](=O)[O-])ccc1Oc1ccccc1Cl | > 20 µM | > 20 µM | > 20 µM | > 20 µM | > 20 µM | > 20 µM | > 20 µM | > 20 µM | > 20 µM
CS(=O)(=O)c1ccc(Oc2ccc(Cl)cc2)cc1 | > 20 µM | > 20 µM | > 20 µM | > 20 µM | > 20 µM | > 20 µM | > 20 µM | > 20 µM | > 20 µM
Nc1c(C(=O)NCc2ccco2)c2nc3ccccc3nc2n1CCN1CCCCC1 | > 20 µM | > 20 µM | > 20 µM | > 20 µM | > 20 µM | > 20 µM | > 20 µM | > 20 µM | > 20 µM
COc1c(F)c(F)cc2c(=O)c(C(=O)O)cn(C3CC3)c12 | 5 µM (≈ 1.48 µg/mL) | > 20 µM | > 20 µM | 10 µM (≈ 2.95 µg/mL) | > 20 µM | 2.5 µM (≈ 0.738 µg/mL) | 20 µM (≈ 5.9 µg/mL) | > 20 µM | > 20 µM
Oc1cccc(C(Nc2nccs2)c2ccc3cccnc3c2O)c1 (stereo not given) | > 20 µM | > 20 µM | > 20 µM | > 20 µM | > 20 µM | > 20 µM | > 20 µM | > 20 µM | 6.67 µM
O=C(c1ccc(F)cc1)N1CCN2C(=O)c3ccccc3C12c1ccccc1 (stereo not given) | > 20 µM | > 20 µM | > 20 µM | > 20 µM | > 20 µM | > 20 µM | > 20 µM | > 20 µM | > 20 µM
Nc1cnn(C2OC(CO)C(O)C2O)c(=O)n1 (stereo not given) | > 20 µM | > 20 µM | > 20 µM | > 20 µM | > 20 µM | > 20 µM | > 20 µM | > 20 µM | > 20 µM
CC(=O)N1c2ccccc2NC2=C(C(=O)CC(C)(C)C2)C1c1ccc(OCc2ccccc2)cc1 (stereo not given) | > 20 µM | > 20 µM | > 20 µM | > 20 µM | > 20 µM | > 20 µM | > 20 µM | > 20 µM | > 20 µM
CCc1c(O)nc2ccc(F)cc2c1OCC1CCC1 | > 20 µM | > 20 µM | > 20 µM | > 20 µM | > 20 µM | > 20 µM | > 20 µM | > 20 µM | > 20 µM
CCOc1noc2cc(OCCC3CCN(c4ccc(C)nn4)CC3)ccc12 | > 20 µM | > 20 µM | > 20 µM | > 20 µM | > 20 µM | > 20 µM | > 20 µM | > 20 µM | > 20 µM
Nc1cc(-c2nc3ccccc3[nH]2)n[nH]c1=O | > 20 µM | > 20 µM | > 20 µM | > 20 µM | > 20 µM | > 20 µM | > 20 µM | > 20 µM | > 20 µM
CCc1cc(O)c(Oc2ccc(C(N)=O)cc2F)cc1F | > 20 µM | > 20 µM | > 20 µM | 10 µM (≈ 2.93 µg/mL) | > 20 µM | 2.5 µM (≈ 0.733 µg/mL) | ≤ 0.156 µM | > 20 µM | > 20 µM
O=C(CC1Sc2ncnn2C1=O)Nc1ccc(Br)cc1 (stereo not given) | > 20 µM | > 20 µM | 10 µM (≈ 3.53 µg/mL) | > 20 µM | > 20 µM | > 20 µM | > 20 µM | 20 µM (≈ 7.06 µg/mL) | > 20 µM
Nc1nc(O)c2ncn([C@@H]3O[C@H](CO)[C@@H](O)[C@H]3F)c2n1 | > 20 µM | > 20 µM | > 20 µM | > 20 µM | > 20 µM | > 20 µM | > 20 µM | > 20 µM | > 20 µM
Cc1cc(C)n2nc(C(=O)NS(=O)(=O)c3c(C)cccc3OC(F)(F)F)nc2n1 | > 20 µM | > 20 µM | > 20 µM | > 20 µM | > 20 µM | > 20 µM | > 20 µM | > 20 µM | > 20 µM
O=C(Cn1cnc2ccccc2c1=O)Nc1ccccc1 | > 20 µM | > 20 µM | > 20 µM | > 20 µM | > 20 µM | > 20 µM | > 20 µM | > 20 µM | > 20 µM
CCC(C)NCC(O)Cn1c2ccc(Cl)cc2c2cc(Cl)ccc21 (stereo not given) | > 20 µM | > 20 µM | > 20 µM | > 20 µM | > 20 µM | > 20 µM | 20 µM (≈ 7.31 µg/mL) | > 20 µM | 6.84 µM
O=S(=O)(NCB(O)O)c1ccc(-c2nnn[nH]2)cc1C(F)(F)F | > 20 µM | > 20 µM | > 20 µM | > 20 µM | > 20 µM | > 20 µM | > 20 µM | > 20 µM | > 20 µM
CCc1ccccc1OCCN1CCCCCC1 | > 20 µM | > 20 µM | > 20 µM | > 20 µM | > 20 µM | > 20 µM | > 20 µM | > 20 µM | > 20 µM
NC1C2CC3CC(C2)CC1C3 (stereo not given) | > 20 µM | > 20 µM | > 20 µM | > 20 µM | > 20 µM | > 20 µM | > 20 µM | > 20 µM | > 20 µM
O=C(/C=C/n1cnc(-c2cc(C(F)(F)F)cc(C(F)(F)F)c2)n1)NNc1cnccn1 | > 20 µM | > 20 µM | > 20 µM | > 20 µM | > 20 µM | > 20 µM | > 20 µM | > 20 µM | > 20 µM
COc1cc(C(C)(C)CCCC(C)C)cc(OC)c1OC | > 20 µM | > 20 µM | > 20 µM | > 20 µM | > 20 µM | > 20 µM | > 20 µM | > 20 µM | > 20 µM
CC(C)N(c1cc(-c2ccccc2)sc1C(=O)O)C(=O)[C@H]1CC[C@H](C)CC1 | > 20 µM | > 20 µM | > 20 µM | > 20 µM | > 20 µM | > 20 µM | > 20 µM | > 20 µM | > 20 µM
Nc1nc(O)c(Br)c(-c2cccc(Cl)c2)n1 | > 20 µM | > 20 µM | > 20 µM | > 20 µM | > 20 µM | > 20 µM | > 20 µM | > 20 µM | > 20 µM
CCNC(=O)Nc1cn2c(-c3ncc(CC)cn3)cc(-c3cccnc3)cc2n1 | > 20 µM | > 20 µM | > 20 µM | > 20 µM | > 20 µM | > 20 µM | > 20 µM | > 20 µM | > 20 µM
